These results are taken from patent US8232295B2, “Treating vascular events with statins by inhibiting PAR-1 and PAR-4” (Heartdrug Research, L.L.C., priority 2004, dated 2012).

The structures appear in SMILES notation.

Test [1] relates to platelet PAR-1/PAR-4 receptors (cleaved epitope). Kind of test: Whole blood flow cytometry with WEDE15 monoclonal antibody (cleaved epitope) in statin-treated patients with coronary artery disease. In kind it is in vivo, human. The settings on record: n = 10. The source says:
(§1) The study was designed as a prospective, single blinded, placebo controlled trial of 6 major statins currently available in the US. The study was approved by local institutional review boards. Written informed consent was obtained from all patients, who were informed of the strict compliance rules, and compensated for outpatient visits, and blood draws.
(§2) Blood samples were obtained with a 19-gauge needle by direct venipuncture and drawn into two 7-ml vacutainer tubes at room temperature containing 3.8% trisodium citrate. The vacutainer tube was filled to capacity and gently inverted 3 to 5 times to ensure complete mixing of the anticoagulant. The first 4-5 ml of blood were used for lipid profile analysis, or discharged. All samples were labeled with coded number and analyzed by blinded technicians. Platelet studies were performed at baseline as well as at Week 4, and Week 6.
(§3) The blood-citrate mixture (50 μl) was diluted with 450 μl Tris buffered saline (TBS) (10 mmol/l Tris, 0.15 mol/l sodium chloride) and mixed by inverting an Eppendorf tube gently two times. The appropriate antibody was then added (5 μl) and incubated at 37° C. for 30 minutes, after incubation, 400 μl of 2% buffered paraformaldehyde was added for fixation. The samples were analyzed on the FACScan flow cytometer (Becton Dickinson, San Diego, Calif.) calibrated to measure fluorescent light scatter. All parameters were collected using four-decade logarithmic amplification. The data were collected in list mode files and then analyzed. The surface expression of platelet receptors was determined by flow cytometry using the following monoclonal antibodies: cleaved (WEDE15), and intact (SPAN12) platelet thrombin PAR-1/PAR-4 receptors (Beckman Coulter, Brea, Calif.), and they were expressed as log mean fluorescence intensity.
(§4) The significance of differences between treatments arms was calculated by c2 and Fisher's exact tests for discrete variables, and Wilcoxon rank-sum test for continuous variables. The significance of differences between individual flow cytometric histograms was calculated using the Smirnov-Kolgomorov test incorporated in the CELLQuest' (San Diego, Calif.) software. Statistical analyses were performed using SPSS/E11.5 (SPSS, Inc., Chicago, Ill.). To control for any baseline differences analysis of variance was used. All p values are 2 sided.
In general terms: Flow cytometry measures light scatter and fluorescence of single cells or particles in a stream.

Test [2] deals with platelet PAR-1/PAR-4 receptors (intact epitope). Kind of test: Whole blood flow cytometry with SPAN12 monoclonal antibody (nonactive, intact epitope) in statin-treated patients with coronary artery disease. In kind it is in vivo, human. The conditions noted are these: n = 10.
From the text: as §1, §2, §3, §4

Setting [3] is: Baseline (pretreatment), patients with coronary artery disease, mean ± SD.
Setting [4] is: Week 4 of statin therapy, dose at physician discretion (Table 2), *p < 0.05.
Where [5] appears, read: Week 6 of statin therapy, dose at physician discretion (Table 2), *p < 0.05.

In the case of `CC(C)n1c(/C=C/C(O)CC(O)CC(=O)O)c(-c2ccc(F)cc2)c2ccccc21` (stereo not drawn) [Fluvastatin, fluvastatin], the results for the “WEDE15-MoAbs (a cleaved epitope of PAR-1/PAR-4 receptors) receptor expression” value (shortened to “WEDE15-MoAbs”) in test [1] (setting [3]), in test [1] (setting [4]) and in test [1] (setting [5]) were 27.1 ± 5.9 Log mean fluorescence intensity, 18.0 ± 5.8* Log mean fluorescence intensity and 20.7 ± 4.1* Log mean fluorescence intensity, respectively. The figures for the “SPAN-12-MoAbs (nonactive, intact epitope of PAR-1/PAR-4 receptors) receptor expression” value (from here on “SPAN-12-MoAbs”) in test [2] (setting [3]), in test [2] (setting [4]) and in test [2] (setting [5]) were 42.8 ± 8.2 Log mean fluorescence intensity, 37.1 ± 7.3 Log mean fluorescence intensity and 29.9 ± 6.4* Log mean fluorescence intensity, respectively.

As for `CC[C@H](C)C(=O)O[C@H]1C[C@@H](C)C=C2C=C[C@H](C)[C@H](CC[C@@H]3C[C@@H](O)CC(=O)O3)[C@H]21` [Lovastatin, lovastatin], the “WEDE15-MoAbs” value is 26.8 ± 4.9 Log mean fluorescence intensity in test [1] (setting [3]), 18.4 ± 5.0* Log mean fluorescence intensity in test [1] (setting [4]) and 23.0 ± 6.3 Log mean fluorescence intensity in test [1] (setting [5]). In addition, the “SPAN-12-MoAbs” value was 40.6 ± 6.9 Log mean fluorescence intensity in test [2] (setting [3]), 40.0 ± 8.1 Log mean fluorescence intensity in test [2] (setting [4]) and 31.1 ± 5.5* Log mean fluorescence intensity in test [2] (setting [5]).

On to `CC(C)c1c(C(=O)Nc2ccccc2)c(-c2ccccc2)c(-c2ccc(F)cc2)n1CC[C@@H](O)C[C@@H](O)CC(=O)O` [Atorvastatin, atorvastatin], for which the “WEDE15-MoAbs” value is 27.5 ± 4.9 Log mean fluorescence intensity in test [1] (setting [3]), 16.1 ± 5.8* Log mean fluorescence intensity in test [1] (setting [4]) and 18.0 ± 7.4* Log mean fluorescence intensity in test [1] (setting [5]). Moreover, the “SPAN-12-MoAbs” value in test [2] (setting [3]) is on record as 46.1 ± 8.3 Log mean fluorescence intensity; in test [2] (setting [4]), 39.5 ± 5.7 Log mean fluorescence intensity; in test [2] (setting [5]), 30.8 ± 4.0* Log mean fluorescence intensity.

For `CC[C@H](C)C(=O)O[C@H]1C[C@H](O)C=C2C=C[C@H](C)[C@H](CC[C@@H](O)C[C@@H](O)CC(=O)O)[C@H]21` [Pravastatin, pravastatin], the “WEDE15-MoAbs” value in test [1] (setting [3]) is listed as 28.2 ± 4.4 Log mean fluorescence intensity; in test [1] (setting [4]) it was 16.9 ± 4.8* Log mean fluorescence intensity; in test [1] (setting [5]), 20.1 ± 6.6* Log mean fluorescence intensity. Also, the “SPAN-12-MoAbs” value in test [2] (setting [3]) is 50.3 ± 9.1 Log mean fluorescence intensity; in test [2] (setting [4]), 29.0 ± 6.7* Log mean fluorescence intensity; in test [2] (setting [5]) it was 32.6 ± 8.4* Log mean fluorescence intensity.

On to `CCC(C)(C)C(=O)O[C@H]1C[C@@H](C)C=C2C=C[C@H](C)[C@H](CC[C@@H]3C[C@@H](O)CC(=O)O3)[C@H]21` [Simvastatin, simvastatin], for which the “WEDE15-MoAbs” value was 29.0 ± 7.3 Log mean fluorescence intensity in test [1] (setting [3]), 16.6 ± 5.5* Log mean fluorescence intensity in test [1] (setting [4]) and 23.4 ± 8.1 Log mean fluorescence intensity in test [1] (setting [5]). In addition, the “SPAN-12-MoAbs” value in test [2] (setting [3]) is given as 45.4 ± 7.0 Log mean fluorescence intensity; in test [2] (setting [4]) it was 26.5 ± 5.8* Log mean fluorescence intensity; in test [2] (setting [5]) it was 24.9 ± 6.2* Log mean fluorescence intensity.

For the compound `CC(C)c1nc(N(C)S(C)(=O)=O)nc(-c2ccc(F)cc2)c1/C=C/[C@@H](O)C[C@@H](O)CC(=O)O` [Rosuvastatin, rosuvastatin], the results for the “WEDE15-MoAbs” value in test [1] (setting [3]), in test [1] (setting [4]) and in test [1] (setting [5]) were 30.1 ± 7.2 Log mean fluorescence intensity, 17.4 ± 5.5* Log mean fluorescence intensity and 22.6 ± 7.2* Log mean fluorescence intensity, respectively. Also, the figures for the “SPAN-12-MoAbs” value in test [2] (setting [3]), in test [2] (setting [4]) and in test [2] (setting [5]) were 42.2 ± 9.4 Log mean fluorescence intensity, 33.6 ± 5.9 Log mean fluorescence intensity and 25.1 ± 7.0* Log mean fluorescence intensity, respectively.
